Earlier results, collected in patent US20080063689A1, “Dietary supplements containing anthocyanins and methods for using same to enhance creatine absorption and vasodilation” (priority 2006, published 2008).

Test system: pancreatic beta cells
Conditions: glucose concentrations within physiological norms

Substance | ability to stimulate insulin secretion
cyanidin-3-glycoside | highest abilities to stimulate insulin secretion
delphinium 3-glycoside | highest abilities to stimulate insulin secretion
